Measured values as given in patent publication US11000050B2 (priority 2015, dated 2021).

How the values were obtained:
[1] = tested on: Salmonella enteritidis PT4; parameters: species or system Ross 308 male broilers; conditions: in vivo
[2] = in vivo
[3] = parameters: species or system Ross 308 male broilers; conditions: in vivo

Compound: COc1cc(CNC(=O)CCCCC#Cc2ccccc2)ccc1O [phenylcapsaicin]
- Salmonella counts (ranked) vs control group [1]: consistently lower
- Salmonella counts vs control chickens on a diet without phenylcapsaicin [1]: numerically had lower
- caecal colonization of Salmonella enteritidis PT4 [1]: not affected
- differences in ranked numbers of Salmonella counts between control and 20 mg/kg treatment group [1]: highly significant
- effective dose (most probable range) [1]: up to 20 mg/kg
- next highest Salmonella value in caecal digesta [1]: 4.0×10^6 CFU/g
- two highest Salmonella values in caecal digesta (considered outliers) [1]: 1.2×10^7 CFU/g
- BWG with increasing dose level [2]: tendency towards a lower BWG
- body weight (BW) vs 0, 20 or 28 mg/kg [2]: significantly lower
- body weight gain (BWG) vs 0, 20 or 28 mg/kg [2]: significantly lower
- daily feed intake [2]: no effect
- feed conversion ratio vs other Salmonella inoculated treatments [2]: higher
- feed intake [2]: did not affect
- BWG ([2]; 36 mg/kg): numerically the lowest
- FCR ([2]; 36 mg/kg): highest
- spleen weight [3]: did not affect
